Source: article PMC6494957 (Frontiers in Microbiology, 2019)
Read-outs that look alike come from different tables or passages of the source.

Columns and labels:
[1] = tested on: HaCaT cell line; assay: In vitro cytotoxicity, WST-1; format: cell-based; settings: Homo sapiens, 10% FBS, read-out: IC50, single agent
Description: Cells were maintained in Dulbecco’s modified Eagle’s medium (DMEM) with 10% fetal bovine serum (FBS) and 1% PenStrep (100 U/mL Penicillin and 100 μg/mL Streptomycin) at 37°C with 5% CO2. Cells were serially passaged at ∼80% confluence ∼ every 4 days. Assays were performed in duplicate in 96 well plates seeded with ∼25,000 cells per well. […] Briefly, the antimicrobials were prepared by performing a twofold serial dilution at 100× of tested concentration in DMSO. Subsequently, a 1 μl aliquot of each concentration was transferred to a sterile 96-well plate containing fresh DMEM with either 10% FBS. After mixing four times, the media aliquots with different concentrations of antimicrobial were transferred to each well of the 96-well plate seeded with cells, using wells containing 1–2% DMSO only as control. To determine the effect of FBS on the cytotoxicity of each compound, DMEM with 40% FBS containing different concentrations of antimicrobial was prepared as described above. After 24 h of exposure, WST-1 reagent (Cell Proliferation Assay reagent, Roche) at a concentration of 10% was added to each well. Absorbance at A450 nm on a Multiskan Ascent 354 Spectrophotometer (Labsystems) was measured after 1 h of incubation. The IC50 value was determined for each compound against each cell line via non-linear regression (three parameters) using GraphPad Prism v6 software.

[2] = tested on: preformed biofilms of P. aeruginosa PA01 and clinical isolates of P. aeruginosa; assay: Antibiofilm susceptibility (MBEC device) and biofilm checkerboard; format: cell-based, Pseudomonas aeruginosa
Description: (§1) Briefly, biofilms of P. aeruginosa PA01, two clinical isolates of P. aeruginosa isolates and two clinical isolates of S. pseudintermedius were formed by inoculating 150 μl of 10^7 CFU/ml of each bacterial suspension in the MBEC^TM device. The inoculated device was aerobically incubated on an orbital shaker at 37°C (OM11, Ratek Instruments Pty Ltd., Australia) for 24 h to produce equivalent (Uniform) biofilms on all pegs. […] Following antimicrobial challenge, the biofilms were rinsed twice with phosphate buffered saline (pH = 7) and disrupted via sonication (Soniclean, Model 160TD, Australia) for 10 min into the recovery medium. Viable cell counts were determined for recovered cells (colony-forming units per peg) after preparing a serial dilution and plating 10 μl in duplicates of each dilution onto plate count agar. Viable counts were then expressed as a percentage of the mean CFU of growth controls. MBEC was defined as the lowest concentration of antimicrobial agent that eradicates the biofilms recovered from the antimicrobial challenge.
(§2) Briefly, the MBEC^TM High-throughput assay system (MBEC^TM BioProducts, Innovotech, Canada) was used for the preparation of Gram-positive and Gram-negative biofilm producing bacteria as described above for antibiofilm susceptibility testing. […] Subsequently, the plate was incubated at 37°C for 24 h.

[3] = tested on: Beta-haemolytic streptococci (n = 20) clinical isolates from otitis externa cases in dogs; assay: MIC/MBC and checkerboard, canine otitis externa isolates; format: cell-based, beta-haemolytic Streptococcus spp.; settings: for MIC50 / MIC90: Streptococcus; for MIC50, in combination of EDTA and ROB / MIC90, in combination of EDTA and ROB / MIC range, in combination of EDTA and ROB: concentration of the labelled component
Description: Escherichia coli ATCC 25922, E. coli ATCC 11229, P. aeruginosa ATCC 27853, P. aeruginosa PA01, Pseudomonas putida ATCC 17428, P. mirabilis ATCC 43071, K. pneumoniae ATCC 13883, A. baumannii ATCC 19606, and A. baumannii ATCC 12457 were used for preliminary susceptibility testing and combination experiments. S. aureus ATCC 29213 and S. pneumoniae ATCC 49619 were used as internal quality controls. A variety of bacterial organisms from both human and canine infections were investigated in this study (n = 119 isolates in total). Twenty-eight clinical Acinetobacter spp. isolates were obtained from cases of human skin and soft tissue infections, including 18 Acinetobacter baumannii and 10 A. calcoaceticus, kindly provided by a person (Institute of Medical and Veterinary Science, South Australia). […] Ninety-one clinical isolates were obtained from cases of canine otitis externa, including seven methicillin-susceptible S. pseudintermedius (MSSP), 13 multidrug- and methicillin-resistant S. pseudintermedius (MRSP) ([Saputra et al., 2017]), 20 beta-haemolytic Streptococcus spp., 30 P. aeruginosa (10 of them resistant to gentamicin and 21 P. mirabilis isolates). These isolates were obtained from the bacterial collection of the national survey of antimicrobial resistance in animals conducted in Australia. Swab samples from dogs with signs of otitis externa were collected by veterinarians and submitted to government, private or university diagnostic laboratories throughout Australia. After routine bacterial identification and the removal of confidential information, the participating veterinary diagnostic laboratories submitted the bacteria and their clinical information to PC2 Laboratories, Australian Centre for Antimicrobial Resistance Ecology, School of Animal and Veterinary Sciences, University of Adelaide, Roseworthy Campus, Roseworthy, SA, Australia, for further study. Thus, animal ethics approval was not required in this study. These organisms were identified to species level using biochemical testing and MALDI-TOF mass spectrometry (Bruker, Preston, VIC, Australia).
(§3) The MIC for ampicillin or gentamicin against each isolate was determined for each test to serve as an internal quality control. The MICs of isolates were determined by visual reading and using an EnSpire Multimode Plate Reader 2300 atA600nm.
Briefly, 10 μl aliquots from each duplicate well from the MIC assays (starting from the MIC for each compound) were inoculated onto a sheep blood agar (SBA) plate and incubated at 37°C.
(§4) Briefly, antimicrobial stock solutions for robenidine and PMBN were prepared at a concentration of 12.8 mg/ml in DMSO. […] A 1 μl aliquot of the first compound from each combination was dispensed along the abscissa (from row A to G) of the 96-well microplate, while the second compound was dispensed along the ordinate (from column 12 to column 3) using an electronic multichannel pipette followed by 89 μl of LB broth. Each well of the plate was inoculated with an aliquot of 10 μl bacterial suspension at a concentration of 1-5 × 10^6 colony forming units (CFU) per ml. Subsequently, the plate was incubated at 37°C for 24 h. The fractional inhibitory concentration index (FICI) described the results of the combinations, and was calculated utilizing the following formula:
(§5) DRI = MIC of drug alone/MIC of drug in combination

[4] = tested on: preformed biofilms of two clinical isolates of S. pseudintermedius; assay: Antibiofilm susceptibility (MBEC device) and biofilm checkerboard; format: cell-based, Staphylococcus pseudintermedius
Description: as §1, §2

[5] = tested on: P. aeruginosa PA01; assay: MIC broth microdilution and checkerboard; format: cell-based, Pseudomonas aeruginosa; settings: for DRI EDTA:ROB: DRI of the labelled component; for MIC: Pseudomonas aeruginosa; for MIC in combination EDTA:ROB: concentration of the labelled component
Description: as §3, §4, §5

[6] = canine otitis externa, read-out: MIC50, single drug
[7] = canine otitis externa, read-out: MIC90, single drug

SMILES | IC50 [1] | MIC50 [3, 6] [µg/mL] | MIC90 [3, 7] [µg/mL] | MIC range, single drug ([3]; canine otitis externa) [µg/mL] | MIC50, in combination of EDTA and ROB [3] [µg/mL] | MIC90, in combination of EDTA and ROB [3] [µg/mL] | MIC range, in combination of EDTA and ROB [3] [µg/mL] | DRI EDTA:ROB [5] | MIC ([5]; read-out: MIC, single drug) [µg/mL] | MIC in combination EDTA:ROB [5] [µg/mL] | other results
O=C(O)CN(CCN(CC(=O)O)CC(=O)O)CC(=O)O [EDTA, ethylenediaminetetraacetic acid] | 3.8 mM | 380 | 750 | 190 to 750 | 190 | 380 | 95 to 380 | 2 | 1900 | 950 | concentration with significant disruption of 24 h preformed biofilms ([2]; Gram-negative (P. aeruginosa) biofilms, vs growth control): 1 mM; MBC/MIC row, EDTA in combination [3]: 750 µg/mL; MBC/MIC row, EDTA in combination (mM in parentheses) [3]: 2 mM; MIC range, single drug (mM in parentheses) [3]: 0.5 to 2 mM; MIC50, in combination of EDTA and ROB (mM in parentheses) ([3]; EDTA component): 0.5 mM; MIC90, in combination of EDTA and ROB (mM in parentheses) ([3]; EDTA component): 1 mM; MIC range, in combination of EDTA and ROB (mM in parentheses) ([3]; EDTA component): 0.25 to 1 mM; MIC50 ([3]; read-out: MIC50, single drug (mM in parentheses)): 1 mM; MIC90 ([3]; read-out: MIC90, single drug (mM in parentheses)): 2 mM; concentration with significant disruption of 24 h preformed biofilms ([4]; Gram-positive (S. pseudintermedius) biofilms, vs growth control): 1 mM; MIC in combination EDTA:ROB (mM in parentheses) ([5]; EDTA component): 2.5 mM; MIC ([5]; read-out: MIC, single drug (mM in parentheses)): 5 mM
N=C(N/N=C/c1ccc(Cl)cc1)N/N=C/c1ccc(Cl)cc1 [ROB, robenidine] | 14 µg/mL | 8 | 8 | 4 to 16 | 2 | 4 | 1 to 8 | 256 | > 256 | 1.25 | antibiofilm activity ([2]; P. aeruginosa biofilms, up to 128 μg/ml, 24 h): did not show any antibiofilm activity; MBC/MIC, ROB in combination with EDTA [3]: 2; MBC/MIC, single drug ([3]; footnote for BS not shown): 1.75; antibiofilm activity ([4]; S. pseudintermedius biofilms, up to 128 μg/ml, 24 h): did not show any antibiofilm activity
